This note sets out measurements from patent US7365154B2, “Peptides antagonistic to an anti-angiogenic antibody and uses therefor” (Centocor, Inc., priority 2003, dated 2008).

The subject of one assay is CEN2319 coated plates. Kind of assay: ELISA of other antibodies on CEN2319 coated plates. The note with it: negative control antibodies. It is filed as binding. As for the experimental part: (§1) To verify the binding activity of synthetic peptides to CNTO95 mAb, ELISAs were performed using peptide-coated plates. PRO-Bind ELISA plates (Falcon) were coated with 100 μl (100 μg/ml) of either CEN 2319, CEN2322 or PBS buffer. Peptide-charged ELISA plates were incubated with 100 μl of various concentrations of CNTO95 mAb for 2 hours at 37° C., and the wells then were washed with PBS plus 0.5% Tween 20 (PBST). Binding was detected with a 1:5,000 dilution of peroxidase-conjugated goat anti-human IgG, Fc gamma fragment antibody (Jackson) and color development with 3,3′,5,5′-tetramethyl-benzidine dihydrochloride (TMB). The reaction was detected by reading the absorbance at 450 nm. PBS-coated wells were used as background control. […] Another set of negative control was performed using mAb CNTO1275 (FIG. 4C). The binding signal is negative.

In assay [1] the test system is CNTO95 mAb binding to integrin αVβ5. The assay can be described thus: Competitive ELISA on plates coated with integrin αVβ5. Further details: species or system human. The note with it: peptide 0 to 200 μg/ml. Here is the method:
(§2) Competitive ELISA on microtiter plates coated with integrins αVβ3 or αVβ5 were carried out to evaluate the binding specificity for CEN2319 peptide to CNTO95 mAb. 100 ul of 5 μg/ml either αVβ3 or αVβ5 (Chemicon, Temacula, Calif.) was coated on the ELISA plates at […] over night. Then, 100 μl of 2 μg/ml CNTO95 was pre-incubated at room temperature for 30 minutes with various concentration peptides (100 μl), ranging from 0 to 200 μg/ml. The peptide-antibody mixtures were then added to the integrin-coated microwells. Following incubation at 37° C. for 2 hours, the plates were washed thoroughly, and bound CNTO95 was detected using peroxidase-conjugated goat anti-human IgG, Fc gamma fragment antibody (1:5,000 dilution), followed by substrate addition as above.
For orientation: An ELISA detects its analyte on a solid surface through an enzyme-linked reagent.

The test system of assay [2] is CNTO95. Kind of assay: Titration microcalorimetry of synthetic peptides with CNTO95. It is filed as binding, human. Here is the method: Titration microcalorimetry is a technique used to measure equilibrium binding affinity by monitoring the enthalpy of binding as a function of titrant added to second molecule at fixed temperature. To determine binding affinities and stoichiometries of synthetic peptides for CNTO95, titration calorimetry experiments were carried out with a Microcal (Amherst, Mass.) MCS isothermal titration calorimeter. Protein concentrations were measured by absorbance at 280 nm. Aliquots of peptide were titrated into a fixed concentration of CNTO95 at 3 μM in Dulbecco's PBS. Heats of binding are monitored with each injection. Peptides were added until the observed heats approach the heats of diluted peptides into buffer. Calorimetry data were analyzed with Microcal ORIGIN software according to a single-site binding model in each case (Wiseman et al., Anal. Biochem. 179: 131-137, 1989). The model includes an equilibrium binding constant (Kd), a molar binding enthalpy change (ΔH) and a molar binding ratio for the binding reaction at 25° C. Table 3 gives the calculated CNTO95 binding properties of synthetic peptides from titration calorimetry data.

The test system of another assay is CNTO95 mAb. The assay can be described thus: ELISA for CNTO95 binding to synthetic peptide-coated plates. The arrangement: species or system human. The note with it: plates coated with 100 μg/ml peptide, absorbance at 450 nm. As for the experimental part:
as §1

The test system of assay [3] is CNTO95 mAb binding to integrin αVβ3. Kind of assay: Competitive ELISA on plates coated with integrin αVβ3. The arrangement: species or system human. Conditions: peptide 0 to 200 μg/ml. Here is the method: as §2
Assay [4] has as its system A375.S2 cells (human melanoma cells). Kind of assay: Flow cytometry of CNTO95 binding to surface integrins of A375.S2 cells with or without peptides. In kind it is cell-based. The note with it: CNTO95 only 10 ug/ml, no peptide. As for the experimental part:
For the detection of surface integrins, A375.S2 cells (human melanoma cells) were harvested, rinsed, suspended in unsupplemented RPMI media. The antibody, CNTO95, was incubated at a final concentration of 10 ug/ml with or without peptides at the concentrations given in Table 1 for 1 hr. Then, the cell solution was added and incubated for an additonal 60 minutes on ice followed by addition of PE-labeled goat anti-human antibody IgG-Fc (10 ug/ml). Absence of primary antibody or substitution of primary antibody with isotype matched antibody served as negative controls. Cells were immediately analyzed with a FACS Scan II flow cytometer (Becton Dickinson, Mountain View, Calif.). […] For simplicity, the mean channel fluorescence for each peak was used as the relative staining value (Table 5).
On the technique in general: In flow cytometry, cells or beads pass a laser one at a time.

Assay [5] has as its system M21, human melanoma cells. The assay can be described thus: Cell adhesion assay on vitronectin coated plates, CNTO95 with peptides. In kind it is cell-based. The note with it: FIG. 7. As for the experimental part:
For cell adhesion assays, Microtiter plates (Linbro-Titertek, ICN Biomedicals, Inc) were coated at 4° C. overnight with vitronectin (1 mg/ml). Immediately before use plates were rinsed with PBS and blocked for 1 hour with 1% BSA/PBS (pH 7.4). Adherent cells (M21, human melanoma cells) were labeled with Calcein AM fluorescent dye (Molecular Probes, Eugene, Oreg.) according to the manufacturer's instructions, harvested, washed twice, and suspended in 0.1% BSA in DMEM medium. Various concentration of Antibodies were incubated with peptides for 1 hrs. Cell density was adjusted to 5×10^5/ml and they were incubated with antibody and peptide solution for 15 min at 37° C. The cell-antibody mixture was added to wells (100 μl per well) and incubated for 1 h at 37° C. Plates were rinsed twice with PBS to remove unbound cells and adhesion was measured in a fluorescence plate reader (Fluoroskan) at 485-538 nm. Cell adhesion to BSA-coated wells served as a negative control. Isotype matched antibodies served as a negative control.

Assay [6] concerns CNTO95. Kind of assay: Positional substitution analysis: peptides spotted on nitrocellulose membrane probed with CNTO95. In kind it is binding, human. Further details: key: +++: very strong; ++: strong; +: equivalent; ±: weak; Blank: negative. The note with it: CEN2319 with one position substituted, + = equivalent. As for the experimental part:
In order to further understand the contribution of each amino acid residue in the binding, systematic substitution at each position were made and tested. The binding analysis was carried out by spotting the various peptides on a nitrocellulose membrane and probing with CNTO95 followed by HRP-conjugated goat-anti-human Fc antibody and color developed using a peroxidase substrate.

“Also recorded” adds a separate entry of the source.

“CNTO1275: another human mAb to an unrelated antigen”: in the assay with CEN2319 coated plates, the “antibody binding to CEN2319 coated plates” value is “negative”.
With “DYRTA ADTTGLQ (DYRTAADTTGLQ; PEPTIDE (1)..(12) Residues 564 to 575 inclusive of human alpha V integrin subunit protein; listed as Homo sapiens) [CEN2322]”, in assay [1], the “competition with CNTO95 binding to αVβ5 (in words)” value was “did not compete”. For the same substance, the “Comments (binding to CNTO95 by calorimetry)” value in the assay with CNTO95 [2] is on record as “no evidence for CEN2322 peptide binding to CNTO95 mAb”. Also, in the assay with CNTO95 mAb, the “CNTO95 mAb binding to peptide-coated plates” value (“CNTO95 mAb binding” below) is on record as “did not bind”. Also, in assay [3], the “competition with CNTO95 binding to αVβ3 (in words)” value was “did not compete”.
On to “CNTO95: fully human IgG1, kappa monoclonal antibody recognizing integrins αVβ3 and αVβ5”, for which, in assay [4], the “Mean Channel Fluorescence” value came out at 89.7.
For “SPLFXPW [flanked by cysteine residues which form a disulfide bond]”, the “CNTO95 mAb binding” value in the assay on CNTO95 mAb was “no specific binding was detected”.
“DFRSWWDLEE (Phage Library Derived Sequence) [CEN2553, alternate antagonist peptide, 10-mer]”: the “effect on the inhibition of cellular adhesion by CNTO95 to vitronectin coated plates” value in assay [5] is reported as “indistinguishable from the peptide CEN2319”.
In the case of DFRSWWDLSGYR [CEN2319], the “competition with CNTO95 binding to αVβ5 (in words)” value in assay [1] is reported as “significant inhibition; also recorded: inhibits”. Also, the “Intensity (relative density of color at each spot)” value in the assay on CNTO95 [6] (listed as D1D) is given as “+”; with CNTO95 [6] (listed as D7D), “++”; with CNTO95 [6] (listed as F2F) it was “+”; in the assay with CNTO95 [6] (listed as G10G), “+”; in the assay on CNTO95 [6] (listed as L8L), “++”; in the assay with CNTO95 [6] (listed as R3R), “+”. Also, the “Intensity (relative density of color at each spot)” value with CNTO95 [6] (listed as R12R) is “+”; in the assay on CNTO95 [6] (listed as S4S), “+”; with CNTO95 [6] (listed as S9S), “+”; in the assay on CNTO95 [6] (listed as W5W), “++”; in the assay with CNTO95 [6] (listed as W6W) it was “+”; in the assay on CNTO95 [6] (listed as Y11Y), “+”. In addition, in the assay with CNTO95 mAb, the “CNTO95 mAb binding” value was “recognized specifically; also recorded: specific binding”. Further, the “competition with CNTO95 binding to αVβ3 (in words)” value in assay [3] is recorded as “inhibits”.
